Drawing on patent US10532054B2, “Compounds for the prevention and treatment of cardiovascular diseases” (Resverlogix Corp., priority 2007, dated 2020), this text covers melting point for 27 compounds.

Some results are limits rather than exact numbers.

What is called melting point is the temperature of the solid-liquid transition. For `COc1cc2nc(-c3ccc(N(CCO)CCO)cc3)[nH]c(=O)c2cc1OC` [Example 47, 2-(4-(bis(2-hydroxyethyl)amino)phenyl)-6,7-dimethoxyquinazolin-4(3H)-one], the melting point is 268 to 270 °C. In the case of `COc1cc2nc(-c3ccc4c(c3)OCCO4)[nH]c(=O)c2cc1OC` [Example 48, 2-(2,3-dihydrobenzo[b][1,4]dioxin-6-yl)-6,7-dimethoxyquinazolin-4(3H)-one], the melting point was in the range of 316.4 to 318.2 °C.

For `COc1cc(OC)c2c(=O)[nH]c(-c3cc(C)c(OCCN4CCOCC4)c(C)c3)cc2n1` [Example 50, 7-(3,5-dimethyl-4-(2-morpholinoethoxy)phenyl)-2,4-dimethoxy-1,6-naphthyridin-5(6H)-one], the melting point was in the range of 212.5 to 212.9 °C. `COc1cc2cc(-c3cc(C)c(O)c(C)c3)[nH]c(=O)c2c(OC)c1CN1CCOCC1` [Example 51, 3-(4-hydroxy-3,5-dimethylphenyl)-6,8-dimethoxy-7-(morpholinomethyl)isoquinolin-1(2H)-one] yielded a melting point of 158 to 161 °C. Take `COc1cc2nc(-c3cc(C)c(O)c(C)c3)[nH]c(=O)c2cc1OC` [Example 52, 2-(4-hydroxy-3,5-dimethylphenyl)-6,7-dimethoxyquinazolin-4(3H)-one]: the melting point was more than 300 °C. `COc1cc(OC)c2c(=O)[nH]c(-c3ccc(CCC(=O)O)cc3)nc2c1` [Example 53, 3-(4-(5,7-dimethoxy-4-oxo-3,4-dihydroquinazolin-2-yl)phenyl)propanoic acid] returned a melting point of 250.6 to 251.1 °C.

Turning to `CC(=O)Nc1ccc2nc(-c3cc(C)c(O)c(C)c3)[nH]c(=O)c2c1` [Example 54, N-(2-(4-hydroxy-3,5-dimethylphenyl)-4-oxo-3,4-dihydroquinazolin-6-yl)acetamide], the melting point was 336.5 °C (dec.). The compound `COc1cc2nc(-c3cc(C)c(OCC(N)=O)c(C)c3)[nH]c(=O)c2cc1OC` [Example 55, 2-(4-(6,7-dimethoxy-4-oxo-3,4-dihydroquinazolin-2-yl)-2,6-dimethylphenoxy)acetamide] had a melting point of 354 to 356 °C. As for `COc1cc(OC)c2c(=O)[nH]c(-c3ccc(OCCO)c(Cl)c3)nc2c1` [Example 56, 2-(3-chloro-4-(2-hydroxyethoxy)phenyl)-5,7-dimethoxyquinazolin-4(3H)-one], the melting point is 287 to 288 °C (dec.). `COc1cc(OC)c2c(=O)[nH]c(-c3ccc(OCCO)c(OC)c3)nc2c1` [Example 57, 2-(4-(2-hydroxyethoxy)-3-methoxyphenyl)-5,7-dimethoxyquinazolin-4(3H)-one]: the melting point fell in the range of 246 to 248 °C. The compound `COc1cc2nc(-c3cc(C)c(OCCO)c(C)c3)[nH]c(=O)c2cc1OC` [Example 58, 2-(4-(2-hydroxyethoxy)-3,5-dimethylphenyl)-6,7-dimethoxyquinazolin-4(3H)-one] displayed a melting point of more than 300 °C. With `COc1cc(OC)c2c(=O)[nH]c(-c3cc(C)c(NC(=O)CO)c(C)c3)nc2c1` [Example 60, N-(4-(5,7-dimethoxy-4-oxo-3,4-dihydroquinazolin-2-yl)-2,6-dimethylphenyl)-2-hydroxyacetamide], the melting point lay in the range of 190 to 192 °C. Turning to `COc1cc(OC)c2c(=O)[nH]c(-c3cc(C)c(OCCO)c(C)c3)cc2n1` [Example 61, 7-(4-(2-hydroxyethoxy)-3,5-dimethylphenyl)-2,4-dimethoxy-1,6-naphthyridin-5(6H)-one], the melting point is 224.9 to 225.4 °C.

On to `COc1cc(OC)c2c(=O)[nH]c(-c3cc(C)c(OC)c(C)c3)cc2n1` [Example 63, 2,4-dimethoxy-7-(4-methoxy-3,5-dimethylphenyl)-1,6-naphthyridin-5(6H)-one], for which the melting point is 262 to 263 °C (dec.). Consider `COc1cc(OC)c2c(=O)[nH]c(-c3cc(C)c(OCC(=O)O)c(C)c3)nc2c1` [Example 64, 2-(4-(5,7-dimethoxy-4-oxo-3,4-dihydroquinazolin-2-yl)-2,6-dimethylphenoxy)acetic acid], for which the melting point was 270 to 272 °C. On to `COc1cc(OC)c2c(=O)[nH]c(-c3ccc(NC(=O)CO)cc3)nc2c1` [Example 65, N-(4-(5,7-dimethoxy-4-oxo-3,4-dihydroquinazolin-2-yl)phenyl)-2-hydroxyacetamide], for which the melting point lay in the range of 318 to 319 °C.

The compound `COc1cc(OC)c2c(=O)[nH]c(-c3cc(C)c(O)c(C)c3)nc2n1` [Example 68, 2-(4-hydroxy-3,5-dimethylphenyl)-5,7-dimethoxypyrido[2,3-d]pyrimidin-4(3H)-one] yielded a melting point of 297 to 299 °C. As to `COc1cc(OC)c2c(=O)[nH]c(-c3ccc(OC)c(CN4CCOCC4)c3)nc2c1` [Example 69, 5,7-dimethoxy-2-(4-methoxy-3-(morpholinomethyl)phenyl)quinazolin-4(3H)-one], the melting point lay in the range of 282.7 to 284.5 °C.

`COc1cc(OC)c2c(=O)[nH]c(-c3cc(C)c(OCCO)c(C)c3)nc2n1` [Example 70, 2-(4-(2-hydroxyethoxy)-3,5-dimethylphenyl)-5,7-dimethoxypyrido[2,3-d]pyrimidin-4(3H)-one] registered a melting point of 255 to 256 °C. Compound `COc1cc(OC)c2c(=O)nc(-c3cc(C)c(O)c(C)c3)n(C)c2c1` [Example 71, 2-(4-hydroxy-3,5-dimethylphenyl)-5,7-dimethoxy-1-methylquinazolin-4(1H)-one] showed a melting point of 188.5 to 189.1 °C. Under `CC(=O)Nc1ccc2nc(-c3cc(C)c(OCCO)c(C)c3)[nH]c(=O)c2c1` [Example 73, N-(2-(4-(2-hydroxyethoxy)-3,5-dimethylphenyl)-4-oxo-3,4-dihydroquinazolin-6-yl)acetamide] stands more than 300 °C; under `Cc1cc(-c2cc3nc(OC(C)C)cc(OC(C)C)c3c(=O)[nH]2)cc(C)c1O` [Example 74, 7-(4-hydroxy-3,5-dimethylphenyl)-2,4-diisopropoxy-1,6-naphthyridin-5(6H)-one], 206 to 208 °C. For the compound `COc1cc(OC)c2c(=O)[nH]c(-c3ccc(O)c(CCO)c3)nc2c1` [Example 75, 2-(4-hydroxy-3-(2-hydroxyethyl)phenyl)-5,7-dimethoxyquinazolin-4(3H)-one], the melting point lay within 249 to 250.3 °C. As for `COc1cc(OC)c2cnc(-c3cc(C)c(OCCO)c(C)c3)nc2c1` [Example 76, 2-(4-(5,7-dimethoxyquinazolin-2-yl)-2,6-dimethylphenoxy)ethanol], the melting point fell in the range of 169 to 170 °C. Under `Cc1cc(C)c2c(=O)[nH]c(-c3cc(C)c(OCCO)c(C)c3)nc2c1` [Example 77, 2-(4-(2-hydroxyethoxy)-3,5-dimethylphenyl)-5,7-dimethylquinazolin-4(3H)-one] stands 259.6 to 261.2 °C. Under `COc1cc(OC)c2c(=O)[nH]c(-c3ccc(N(CCO)CCO)cc3)nc2n1` [Example 78, 2-(4-(bis(2-hydroxyethyl)amino)phenyl)-5,7-dimethoxy-pyrido[2,3-d]pyrimidin-4(3H)one] stands 277 to 279 °C; under `COCCOc1c(C)cc(-c2nc3cc(OC)cc(OC)c3c(=O)[nH]2)cc1C` [Example 79, 5,7-dimethoxy-2-(4-(2-methoxyethoxy)-3,5-dimethylphenyl)quinazolin-4(3H)-one], 201 to 202 °C.
